{"source": "paper PMC12000251", "about": "“Evaluation of the Anti-Inflammatory Effects of Novel Fatty Acid-Binding Protein 4 Inhibitors in Microglia” (Journal of Neuroimmune Pharmacology, 2025)", "key": {"[1]": {"target": "T1, Recombinantly-expressed human FABP4 (Homo sapiens, UniProt P15090)", "T1 construct": "made in house", "T1 sequence (P15090 whole entry, the tested form may be a part)": "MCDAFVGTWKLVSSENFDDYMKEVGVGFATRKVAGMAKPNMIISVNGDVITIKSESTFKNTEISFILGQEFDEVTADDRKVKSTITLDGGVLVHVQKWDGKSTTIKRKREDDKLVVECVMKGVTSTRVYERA", "assay": "Isothermal titration calorimetry (ITC) binding affinity to FABP4", "details": "one-site binding model, read-out: KD (ITC titration of FABP4, Figure S1)", "method": "A prior fragment screen identified a series of bi-aryl sulfonamides that bound to FABP4. Analogues of this chemical sulfonamide scaffold were then purchased, which led to the identification of the compounds used in this study (MFP-0011462, MFP-0012314, MFP-0012318, and MFP-0012328). Their predicted LogP and tPSA values were calculated in Vortex v2020.1.117658-s (Dotmatics, Boston, MA). The binding affinity of these four compounds was characterised by isothermal titration calorimetry (ITC). ITC was carried out using an iTC200 microcalorimeter (MicroCal, United Kingdom) with a coin shaped sample cell (201.4 μL) with stirring at 1000 rpm at 25°C. Titrations were performed in an ITC buffer (50 mM sodium phosphate, 50 mM NaCl, pH 7.4 with 2% DMSO). Compounds were diluted from concentrated stocks in ITC buffer and loaded into the titration syringe at a concentration of 1 mM, with a final DMSO concentration of 2% (v/v). Recombinantly-expressed human FABP4 was prepared as described previously (Lee et al. [2015a]) in an identical buffer at a protein concentration of 80 μM and placed in the sample cell. A thermal equilibration step at 25°C was followed by an initial 180 s delay step and subsequently an initial 0.2 μL injection. 16 serial injections of the 1 mM compound solution (2 μL each) were made at intervals of 220 s with continuous stirring of the solution in the sample cell. The iTC200 control software was used to operate and acquire raw data as power (microcalories/sec) vs time (min). The data were processed using the Origin 7.0 software (MicroCal) and the binding affinity (KD) was calculated by fitting the data to a one-site binding model."}, "[2]": {"assay": "1D 1H NMR aqueous solubility in phosphate buffer", "assay_type": "physicochemical", "details": "kinetic from dmso stock, phosphate buffer pH 7.4 in D2O, 0.1% d6-DMSO, 25 °C, range 3.125–100 µM, read-out: Soluble in phosphate buffer up to (concentration)", "method": "1D ^1H NMR was employed to determine the solubility limits of the four MFP compounds and BMS309403 in phosphate buffer. This method has been commonly used to determine compound solubility in the drug discovery setting (Devine et al. [2014]; Lee et al. [2015b]; Lin et al. [2009]). A 100 mM of stock solution of each compound was first prepared in d6-DMSO. These stock solutions were then added into phosphate buffer (50 mM sodium phosphate, 25 mM NaCl, 100 µM of DSS, pH 7.4 in D2O) to achieve a final d6-DMSO concentration of 0.1% (v/v) which is equivalent to the DMSO concentration present in BV-2 cell culture experiments. All samples were inspected to note whether visible precipitates were formed. ^1H NMR spectra for all of the samples were acquired using Bruker Avance III 600 MHz spectrometer at 25 °C. Experimental data were acquired using a relaxation delay of 5 s with 128 scans, and water suppression using an excitation sculpting pulse scheme. Mestrelab Research 13.0 software was used to integrate the proton resonances of the compounds. A well-resolved peak (i.e. no overlaps with any other peaks) in the spectrum of each compound was chosen for integration, relative to the DSS peak (at 0 ppm). […] In addition, the chemical shifts of the resonances in the 1D ^1H NMR spectra were monitored."}, "LPS-activated BV-2 cells": {"system": "LPS-activated BV-2 cells", "assay": "Intracellular ROS (DCF-DA) in LPS-activated BV-2 cells", "assay_type": "cell-based, mouse", "method": "BV-2 cells were cultured in DMEM/F-12 media supplemented with 10% (v/v) FBS and 1% (v/v) penicillin/streptomycin, and kept at 37 °C in a humidified incubator ([…], 5% CO2) for all studies. Cells with 80% confluency were used for experiments. […] In some experiments (detailed in Results), BV-2 cells were exposed to MFP compounds for 2 h before a 24 h exposure to LPS and MFP compounds, and in some studies, in the presence of FABP4 siRNA using a 24 h treatment that we have previously employed (Low et al. [2021]). In brief, BV-2 cells were washed once 4 h post-seeding with blank DMEM/F-12 media. siRNA complexes (containing FABP4 siRNA, target sequence 5’-[…]-3’ or AllStar Negative Control siRNA, target sequence proprietary) were added dropwise onto the cells. siRNA complexes were prepared by mixing siRNA and HiPerfect transfection reagent together in FBS-free DMEM/F12 media and incubating for 15 min to allow the siRNA complexes to form. The cells were incubated with the siRNA complex for 5 min, after which, DMEM/F12 media containing FBS was added into each well to dilute the siRNA complexes to 5 nM.\nIntracellular ROS in BV-2 cells, following treatment with MFP compounds and LPS, was detected using the widely-used membrane permeable probe, DCF-DA. Post treatment, BV-2 cells were rinsed once with warm HBSS prior to being incubated with 40 µM of DCF-DA for 30 min at 37°C, 5% CO2. The wells were then rinsed again with HBSS before being read on a Perkin-Elmer Enspire plate reader (λex: 488 nm, λem: 535 nm) as we have reported previously (Kagawa et al. [2023])."}}}
{"smiles": "O=C(O)c1cccc(NS(=O)(=O)c2ccc(Cl)c(Cl)c2)c1", "note": "[MFP-0012328]", "values": [{"measurement": "Kd", "setting": "[1]", "value": 0.316, "unit": "µM"}, {"measurement": "solubility", "setting": "[2]", "value": "≥ 100", "unit": "µM"}, {"measurement": "reduction of ROS production vs LPS-treated BV-2 cells", "setting": "LPS-activated BV-2 cells; 5 nM FABP4 siRNA, 10 µM MFP-0012328, or both, with 1 µg/mL LPS 24 h, range over the three treatments", "value": "36.6–61.2%"}, {"measurement": "further reduction of ROS levels in FABP4 siRNA treated cells", "setting": "LPS-activated BV-2 cells; 10 µM plus 5 nM FABP4 siRNA, 1 µg/mL LPS 24 h", "value": "not able to reduce ROS levels any further"}, {"measurement": "reduction of ROS production vs LPS-alone", "setting": "LPS-activated BV-2 cells; BV-2 cells pre-treated with LPS for 4 h, then 10 µM compound", "value": 27.8, "unit": "%"}]}
